Test results published in patent US20240408071A1, “NOVEL COMBINATION OF SEROTONIN RECEPTOR (5-HTR2B) ANTAGONIST AND AN IMMUNOMODULATOR AND CHEMOTHERAPEUTIC DRUGS FOR INHIBITION OF CANCER” (NATIONAL CENTRE FOR CELL SCIENCE, priority 2021, published 2024).

What was measured:
serotonin = assay: Serum serotonin level in MC38 colon tumor-bearing mice; format: in vivo; settings: MC38-induced colon tumor-bearing mice, SSRI treatment
Protocol: This secretory variant of PD-L1 is responsible for most of the resistance to the anti-PD-L1 therapy in the tumor.
(§1) Universal competitive serotonin ELISA kit was purchased from Novus biological (Catalog #NBP2-68127), and ELISA was performed according to the manufacturer's protocol. Mouse PD-L1 DuoSet ELISA kit was procured from the R&D System (Catalog #DY1019-05), and the ELISA was performed according to the manufacturer's guidelines.

PD-L1 = assay: Serum PD-L1 ELISA in MC38 tumor-bearing mice; format: in vivo, C57BL/6J mice; settings: MC38-induced colon tumor-bearing mice, SSRI treatment
Protocol: FIG. 13 depicts 5-HTR2B signaling promotes PD-L1 expression on the MC38 cell line in vitro: (A-B) MC38 cells are treated with 5-HTR2B agonist (BW-723C86-50 μM), serotonin (100 μM), and 5-HTR2B antagonist (RS-127445-50 μM) for 72 hours, and the PD-L1 expression was checked by flow cytometry and the percentage of PD-L1^+ MC38 cells was plotted. (C-D) MFI of PD-L1 from the above experiment were plotted as histogram overlay (C) or as statistical data points (D). (E) Relative PD-L1 mRNA expression in MC38 cells following BW-723C86 and RS-127445 treatment for 48 hours. Here the values are shown as a fold change as compared to control MC38 cells. […] All the statistical analysis was performed using either Student's ‘t’ test or two-way ANOVA using Sidak's multiple comparison test. *P<0.05; **P<0.01; […]; ****P<0.0001 Error bar represents mean±standard error of means (SEM).
as §1
To understand it, investigations were done on whether 5-HTR2B signaling also affects the surface expression of molecules that alters inflammatory and cytotoxic immune cells. Among different molecules, PD-L1 is of particular interest as it is an immune checkpoint ligand that affects cytotoxic T-cell responses toward cancer. […] (FIG. 13F).

MC38 colon cancer cells = assay: MC38 colon tumor growth (tumor volume) in C57BL/6 mice; format: in vivo; settings: sertraline hydrochloride 15 mg/kg/week (FIG. 7C)
Protocol: Tumor volumes were measured and plotted. (B) MC38 colon cancer cells were injected subcutaneously into the right flank of C57BL/6 mice. After seven days when tumors became palpable, one group was treated with 5-HTR7 antagonist SB-269970 (n=6 mice; 3 mg/kg/day) or left untreated (n=6 mice). Tumor volume was measured and plotted. (C) After seven days of the setting of tumor growth, one group was treated with a serotonin transporter blocker (SSRI) sertraline hydrochloride (n=6 mice; 15 mg/kg/week) or left untreated (n=6 mice). Tumor volume was measured and plotted. (D) C57BL/6 mice were given subcutaneously injected MC38 cells. After seven days of tumor growth, one group of mice was treated with different doses of 5-HTR2B antagonist SB-215505 (n=6). Tumor volume was measured and plotted. (E) C57BL/6 mice were given subcutaneously injected MC38 cells. After seven days of the tumor growth, one group of mice was treated with different doses of 5-HTR2B antagonist SB-215505 (n=6), one group treated with 5-HTR2B agonist BW-723C86 (n=6; 4 mg/kg/day). Tumor volume was measured and plotted. (F) MC38 cells were subcutaneously injected into C57BL/6 mice. After seven days when the tumor became palpable in mice, one group of mice was treated with FDA-approved 5-HTR2B antagonist cariprazine (Carispec; Sun pharma) via oral gavage (n=5 mice; dose 5 mg/kg body weight/day) or left untreated (n=5 mice). Tumor growth was measured and plotted. […] All the statistical analysis was performed using Student's ‘t’ test or two-way ANOVA using Sidak's multiple comparison test. *P<0.05; **P<0.01; ***P<0.00; ****P<0.0001 Error bar represents mean±standard error of means (SEM).

CN[C@H]1CC[C@@H](c2ccc(Cl)c(Cl)c2)c2ccccc21 [sertraline]
free serotonin level in the serum (serotonin): increased free serotonin level in the serum | secretory PD-L1 variant level in the serum (PD-L1): enhanced the secretory PD-L1 variant level in the serum | MC38 tumor growth (MC38 colon cancer cells): promotes MC38 tumor growth
